Assay results: PMC9499525, “Tissue-restricted inhibition of mTOR using chemical genetics” (Proceedings of the National Academy of Sciences of the …, 2022)

Tests used:
[1] = molecular target: T1, FKBP12-HA (wild-type) / GST-mTOR FRB domain ternary complex (Homo sapiens, UniProt P42345+P62942); assay: TR-FRET ternary complex formation, wild-type FKBP12 with mTOR FRB; assay type: binding
T1 construct: recombinant HA-tagged wild-type or V55G mutant FKBP12 with GST-tagged mTOR FRB domain; 8xHis (cleaved yes); made in house; host or cells: E. coli BL21 (DE3) for FKBP12
Experimental: TR-FRET assay was performed using recommended conditions from Cisbio with slight modifications. FKBP12-HA, FKBP12 V55G-HA, and GST-mTORFRB recombinant proteins were each diluted to 5 nM in assay buffer (20 mM HEPES pH 7.5, 150 mM NaCl, 0.05% Tween-20, 0.1% bovine serum albumin [BSA], 0.5 mM dithiothreitol [DTT]). Anti-GST-Tb (Cisbio) and Anti-HA-XL665 (Cisbio) were diluted to 0.625 µg/mL and 5 µg/mL, respectively, in assay buffer. Rapa* compounds and FK506 were diluted to 50 µM and rapamycin to 5 µM in assay buffer containing 5% DMSO, and threefold serial dilution series were made from these solutions. […] Time-resolved fluorescence was read on a Tecan Spark 20M plate reader with the following parameters: Lag time: 60 µs; Integration time: 500 µs; Read A: Excitation filter 320 ([25]) nm, Emission filter 610 ([25]) nm, Gain 130; Read B: Excitation filter 320 ([25]) nm, Emission filter 665 ([8]) nm, Gain 165. […]
Human FKBP12 coding sequence was cloned a pET-47b bacterial expression vector using Gibson assembly and a C-terminal HA-tag was added by QuickChange PCR. FKBP12 proteins were expressed as 8xHis fusions in E. coli BL21 (DE3) cells. […]
PAMPA was performed by Quintara Discovery as described previously (2). Compounds were analyzed at 100 µM in PBS and measured using liquid chromatography-mass spectrometry (LC-MS) after 5 hours. […]

[2] = molecular target: T2, FKBP12 V55G-HA / GST-mTOR FRB domain ternary complex (Homo sapiens, UniProt P42345+P62942, V56G); assay: TR-FRET ternary complex formation, FKBP12 V55G with mTOR FRB; assay type: binding
T2 construct: recombinant HA-tagged wild-type or V55G mutant FKBP12 with GST-tagged mTOR FRB domain; 8xHis (cleaved yes); made in house; host or cells: E. coli BL21 (DE3) for FKBP12
Experimental: TR-FRET assay was performed using recommended conditions from Cisbio with slight modifications. FKBP12-HA, FKBP12 V55G-HA, and GST-mTORFRB recombinant proteins were each diluted to 5 nM in assay buffer (20 mM HEPES pH 7.5, 150 mM NaCl, 0.05% Tween-20, 0.1% bovine serum albumin [BSA], 0.5 mM dithiothreitol [DTT]). Anti-GST-Tb (Cisbio) and Anti-HA-XL665 (Cisbio) were diluted to 0.625 µg/mL and 5 µg/mL, respectively, in assay buffer. Rapa* compounds and FK506 were diluted to 50 µM and rapamycin to 5 µM in assay buffer containing 5% DMSO, and threefold serial dilution series were made from these solutions. We mixed 4 µL diluted FKBP12-HA protein, 4 µL diluted GST-mTORFRB, and 4 µL of compound or DMSO control in a well of a black low-volume 384-well plate (Corning 4514), and the mixture was incubated at room temperature for 1 h. We then added 4 µL of Anti-GST-Tb, and 4 µL Anti-HA-XL665, and the mixture was incubated at room temperature for an additional 1 h. Time-resolved fluorescence was read on a Tecan Spark 20M plate reader with the following parameters: Lag time: 60 µs; Integration time: 500 µs; Read A: Excitation filter 320 ([25]) nm, Emission filter 610 ([25]) nm, Gain 130; Read B: Excitation filter 320 ([25]) nm, Emission filter 665 ([8]) nm, Gain 165. Three replicates were performed for each assay condition. […]
Human FKBP12 coding sequence was cloned a pET-47b bacterial expression vector using Gibson assembly and a C-terminal HA-tag was added by QuickChange PCR. FKBP12 proteins were expressed as 8xHis fusions in E. coli BL21 (DE3) cells. […] Samples were then purified by size exclusion chromatography, concentrated to 10-20 mg/mL, and snap frozen in liquid nitrogen. pGEX-2T FRB was a gift from Jie Chen (Addgene plasmid #26607). mTOR FRB was expressed as a GST-fusion and purified as previously described (1). […]
PAMPA was performed by Quintara Discovery as described previously (2). Compounds were analyzed at 100 µM in PBS and measured using liquid chromatography-mass spectrometry (LC-MS) after 5 hours. […] Compounds were analyzed at 10 µM and measured by LC-MS after 1 hour.

[3] = PAMPA membrane permeability; assay type: in vitro ADME; conditions: 100 µM in PBS, LC-MS
Experimental: PAMPA and Caco-2 membrane permeability assays
PAMPA was performed by Quintara Discovery as described previously (2). Compounds were
analyzed at 100 µM in PBS and measured using liquid chromatography-mass spectrometry (LC-

[4] = Bidirectional Caco-2 cell permeability; assay type: in vitro ADME; conditions: human, LC-MS
Experimental: PAMPA and Caco-2 membrane permeability assays […]
MS) after 5 hours. Bidirectional Caco-2 cell permeability assay was performed by Quintara
Discovery. Compounds were analyzed at 10 µM and measured by LC-MS after 1 hour.

[5] = test system: S. cerevisiae BY4741 fpr1-KO expressing human FKBP12 variants; assay: Yeast disk diffusion growth inhibition assay; assay type: cell-based, Saccharomyces cerevisiae; conditions: 100 µM on disk, 3 d
Text: BY4741 fpr1::URA3 yeast were generated by homologous recombination, selected on Ura- synthetic complete medium and subsequently grown in yeast extract-peptone-dextrose (YPD) medium ([46]). Human FKBP12 coding sequence was cloned via Gibson assembly into a pCH043 yeast expression vector, which had been previously modified with an HIS3 selection open reading frame (ORF). The C-terminal HA-tag and F46/V55 mutations were introduced by site-directed mutagenesis PCR. Plasmids were transformed into the BY4741 fpr1::URA3 strain and selected on His- synthetic complete medium. Isolated strains were verified by plasmid sequencing. To prepare yeast protein lysates, 2 optical density (OD) equivalents from an overnight culture was resuspended in 200 µl 0.1 M NaOH and incubated at room temperature for 15 min. Cells were pelleted, resuspended in 50 µL 2x SDS loading dye, and heated at 95 °C for 5 min. Following centrifugation at 20,000 × g for 10 min, supernatant was saved for analysis.
Yeast strains containing FKBP12-expression vectors were shaken overnight at 30 °C in 3 mL His- synthetic complete media. 0.1 OD of culture was spun down, resuspended in 1 mL sterile water, and 100 µL was spread on His-synthetic media containing galactose/raffinose to induce protein expression. Plates were incubated at 30 °C for 1 h to dry. Filter paper circles were prepared with a hole punch, placed on the plate, and 5 µL of DMSO, 100 µM rapamycin, or 100 µM Rapa* compound was pipetted onto the filter paper. Plates were incubated at 30 °C for 3 d before zones of growth inhibition were measured.

[6] = test system: Flp-In 293 cells with and without FKBP12 V55G-HA; assay: Cell growth by CellTiter-Glo in Flp-In 293 cells; assay type: cell-based, human; conditions: 72 h treatment
Experimental: All cell lines were maintained in DMEM (Gibco) supplemented with 10% heat-inactivated FBS (Axenia Biologix) at 37 °C in 5% CO2. Flp-In T-REx 293 cells were obtained from Thermo Fisher supplemented with 15 µg/mL blasticin and 100 µg/mL Zeocin. […] When indicated, cells were treated with drugs at 60–80% confluency at a final DMSO concentration of 0.1%.
Cells were seeded into 96-well tissue-culture treated plates (Greiner) and were allowed to incubate for 24 h. Cells were treated with indicated compounds and incubated for 72 h (100 µL final well volume, 0.1% DMSO). Cell viability was assessed by CellTiter-Glo (Promega). Assay reagent was diluted 1:4 in PBS containing 1% Triton X-100, and 100 µL was added to each well and mixed on a plate shaker for 20 min. Luminescence was measured on a Tecan Spark 20M.

[7] = test system: Drosophila larvae (w1118 control and FKBP12 V55G transgenic); assay: Drosophila larval development (pupae 9 d after egg laying); assay type: in vivo
Experimental: All Drosophila stocks and crosses were maintained on standard cornmeal-molasses food at 25 °C using a 12-h light/dark cycle. To generate UAS-FKBP12 V55G-HA transgenic lines, human FKBP12 V55G-HA ORF was cloned into a pUAST-attB vector between EcoR-I and Xho-I restriction sites. This construct was then integrated into an attB site using phiC31 integrase with the assistance of Rainbow Transgenic Flies, Inc. The driver stocks da-GAL4 (ubiquitous), elav-GAL4 and nSyb-GAL4 (neuronal-specific), Mef2-GAL4 and mhc-GAL4 (musculature), and 2–286-GAL4 and phm-GAL4 (ring-gland-specific) were obtained from Bloomington Drosophila Stock Center. The crossing schemes used in this study are depicted in SI Appendix, Fig. S11. For rapamycin or Rapa*3Z related experiments, fly food was prepared freshly 24 h before each experiment.
Fly food containing ethanol vehicle was used as control. […] Three biological replicates were used for each experiment. Data were analyzed using Prism 9.0 (GraphPad).

T2 sequence (P62942 whole entry V56G, the tested form may be a part): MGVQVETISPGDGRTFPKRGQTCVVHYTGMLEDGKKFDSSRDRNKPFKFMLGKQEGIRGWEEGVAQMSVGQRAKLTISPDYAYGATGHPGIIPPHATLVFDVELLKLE
T2 sequence (P42345 2012-2144 limits assumed): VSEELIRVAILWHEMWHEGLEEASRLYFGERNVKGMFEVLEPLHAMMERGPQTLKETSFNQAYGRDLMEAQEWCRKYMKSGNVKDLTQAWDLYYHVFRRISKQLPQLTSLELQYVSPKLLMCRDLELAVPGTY
T1 sequence (P62942 whole entry, the tested form may be a part): as the sequence (P62942 whole entry V56G, the tested form may be a part) above, with G56V counted along it
T1 sequence (P42345 2012-2144 limits assumed): as the sequence (P42345 2012-2144 limits assumed) above

| Compound | Ternary complex induction (in words), wild-type FKBP12 [1] | Ternary complex induction (in words), FKBP12 V55G [2] | Papp at 5 h, 100 µM [3] | Papp A→B at 1 h, 10 µM [4] | Papp B→A at 1 h, 10 µM [4] | Growth inhibition of yeast, fpr1-KO with empty vector [5] | Growth inhibition of yeast expressing wild-type human FKBP12 ([5]; fpr1-KO + human FKBP12) | Growth inhibition of yeast expressing FKBP12 F46/V55 mutants ([5]; mutant strains) | Cell growth inhibition, 293 cells with and without FKBP12 V55G [6] | Effect on larval development in wild-type animals ([7]; wild-type (w1118) larvae, compound in food) | Dose required for complete inhibition of larval development ([7]; wild-type flies (w1118), in food, 9 d after egg laying) | Selectivity of ternary complex induction, wild-type vs V55G ([2]; FKBP12 vs FKBP12 V55G) |
| --- | --- | --- | --- | --- | --- | --- | --- | --- | --- | --- | --- | --- |
| C=CC[C@@H]1/C=C(\C)C[C@H](C)C[C@H](OC)[C@H]2O[C@@](O)(C(=O)C(=O)N3CCCC[C@H]3C(=O)O[C@H](/C(C)=C/[C@@H]3CC[C@@H](O)[C@H](OC)C3)[C@H](C)[C@@H](O)CC1=O)[C@H](C)C[C@@H]2OC [FK506, reference compound] | failed to induce either ternary complex | failed to induce either ternary complex | – | – | – | – | – | – | – | – | – | – |
| C=CCO/N=C1/C[C@@H]([C@H](C)C[C@@H]2CC[C@@H](O)[C@H](OC)C2)OC(=O)[C@@H]2CCCCN2C(=O)C(=O)[C@]2(O)O[C@@H](CC[C@H]2C)C[C@H](OC)/C(C)=C/C=C/C=C/[C@@H](C)C[C@@H](C)C(=O)[C@H](OC)[C@H](O)/C(C)=C/[C@H]1C [Rapa*-9Z] | – | – | 0.014 ×10⁻⁶ cm/s | < 0.1 ×10⁻⁶ cm/s | 0.4 ×10⁻⁶ cm/s | – | – | – | – | – | – | – |
| CO[C@H]1C[C@@H]2CC[C@@H](C)[C@@](O)(O2)C(=O)C(=O)N2CCCC[C@H]2C(=O)O[C@H]([C@H](C)C[C@@H]2CC[C@@H](O)[C@H](OC)C2)C/C(=N/O)[C@H](C)/C=C(\C)[C@@H](O)[C@@H](OC)C(=O)[C@H](C)C[C@H](C)/C=C/C=C/C=C/1C [Rapa*-1Z] | – | – | 0.002 ×10⁻⁶ cm/s | < 0.3 ×10⁻⁶ cm/s | 1.6 ×10⁻⁶ cm/s | – | – | – | – | – | – | – |
| CO[C@H]1C[C@@H]2CC[C@@H](C)[C@@](O)(O2)C(=O)C(=O)N2CCCC[C@H]2C(=O)O[C@H]([C@H](C)C[C@@H]2CC[C@@H](O)[C@H](OC)C2)CC(=O)[C@H](C)/C=C(\C)[C@@H](O)[C@@H](OC)C(=O)[C@H](C)C[C@H](C)/C=C/C=C/C=C/1C [rapamycin, reference compound] | – | – | 0.209 ×10⁻⁶ cm/s | 0.8 ×10⁻⁶ cm/s | 2.3 ×10⁻⁶ cm/s | conferred resistance to rapamycin | rescued full sensitivity | retained activity, albeit reduced, in the mutant strains | inhibited mutant and wild-type cells equally | profound inhibition of larval development | 1 µM | slightly selective toward the wild-type complex |
